The values below come from patent publication US5085991A, “Process of preparing purified aqueous indole solution” (Mitsui Toatsu Chemicals, Inc., priority 1987, dated 1992).

Series [1] addresses tryptophan synthase (Escherichia coli, UniProt P0A879). The series is described as follows: Activity of immobilized tryptophan synthase source after standing in aqueous solutions of organic impurities. As to conditions: for activity at 20 µg/mL: impurity 20 ppm; for activity at 20 µg/mL / activity at 50 µg/mL / activity at 200 µg/mL / activity at 500 µg/mL / activity at 1000 µg/mL: 30° C., pH 8.5; for activity at 20 µg/mL / activity at 50 µg/mL / activity at 500 µg/mL / activity at 1000 µg/mL: ratio to enzyme left in reference solution; for activity at 50 µg/mL: impurity 50 ppm; for activity at 200 µg/mL: impurity 200 ppm, ratio to enzyme left in reference solution without organic substance; for level at which the impurity inhibits tryptophan synthase: enzyme synthesizing tryptophan from indole and L-serine; for activity at 500 µg/mL: impurity 500 ppm; for activity at 1000 µg/mL: impurity 1000 ppm. In kind it is biochemical, Escherichia coli MT-10232 (FERM BP-19). As for the experimental part: Escherichia coli MT-10232 (FERM BP-19), which is a tryptophan synthase-producing bacterium, was inoculated to 100 ml of the culture medium having the composition shown in Table 2 in a 500 ml flask, and was incubated at 35° C. for 24 hours. Two hundred milliliters (in two flasks) of the culture medium was inoculated to 15 1 of the culture medium having the composition shown in Table 3 in 30 1 of jar fermenter and was incubated at 35° C., pH 6.8 (adjusted with 28% aqueous ammonia) for 30 hours.
After the culture, the culture medium was centrifuged to collect 600 g wet weight of the bacterial cells. The cells were placed in a sealed container and restored in a refrigerator at 4° C., and were used for preparing the immobilized enzyme source.
One part of the above-described wet bacterial cells and one part of isotonic sodium chloride solution were mixed with stirring. On the other hand, 7.76 parts of distilled water and 0.24 parts of sodium alginate (NSPLL manufactured by Kibun Food Chemifa, Co., Ltd.) were mixed with stirring and pH thereof was adjusted to 8.5 with sodium hydroxide.
Two parts of the suspension of the cells and 8 parts of the sodium alginate solution were mixed with stirring and the resulting mixture was fed into a syringe and was dropped into a gelling solution from the tip of a needle with an inner diameter of 0.5 mm to 0.8 mm.
The particles formed by dropping the mixture into the gelling solution was matured under stirring in the gelling solution to obtain immobilized enzyme source.
To each of the aqueous solutions with a volume of 100 ml containing aniline, N-ethylaniline, o-ethylaniline, o-toluidine, 3-methylindole or 2-ethylindole in the amount shown in Table 4, […] of calcium chloride dihydrate and 1 mg of pyridoxal-5'-phosphate were added, and the pH thereof was adjusted to 8.5 with aqueous ammonia.
Further, as a reference solution, 100 ml of distilled water containing no organic substance was subjected to the same procedure as described above and the immobilized enzyme source was added thereto as mentioned above, followed by being left to stand at 30° C.
Twenty four hours later and 96 hours later, 1 g of immobilized enzyme source was removed from each of the solutions and the enzyme activity was determined. The ratio of the activity of the enzyme left in the solution of the organic substance to the activity of the enzyme left in the reference solution was determined and is shown in Table 4.
The enzyme activity was determined as follows:
Ten milliliters of reaction medium containing indole, L-serine, pyridoxal-5'-phosphate (PLP) and 0.3 g of the immobilized enzyme source was prepared and the reaction was conducted at 35° C. in a shaking incubator for 1 hour with shaking. The produced L-tryptophan was analyzed with high performance liquid chromatography.

The conditions of series [2]: room temperature; cited from earlier work.
The mark [3] stands for this setting: 24 h, read-out: Activity Ratio 24 Hours Later.
[4] abbreviates: 96 h, read-out: Activity Ratio 96 Hours Later.

Read-outs that look alike come from different tables or passages of the source.

tryptophan synthase, sequence (P0A879 2-397): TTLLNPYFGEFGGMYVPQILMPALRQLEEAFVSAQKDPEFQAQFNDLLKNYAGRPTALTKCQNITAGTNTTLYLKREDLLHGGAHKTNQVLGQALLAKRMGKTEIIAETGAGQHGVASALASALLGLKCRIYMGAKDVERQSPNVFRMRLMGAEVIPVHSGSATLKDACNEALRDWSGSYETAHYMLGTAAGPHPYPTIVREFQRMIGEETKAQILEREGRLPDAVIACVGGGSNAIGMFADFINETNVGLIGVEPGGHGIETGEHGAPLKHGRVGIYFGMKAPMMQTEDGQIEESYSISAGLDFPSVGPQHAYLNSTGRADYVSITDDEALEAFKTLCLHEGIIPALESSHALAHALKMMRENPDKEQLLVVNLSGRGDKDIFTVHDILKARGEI
tryptophan synthase, sequence (P0A877 whole entry, further chain): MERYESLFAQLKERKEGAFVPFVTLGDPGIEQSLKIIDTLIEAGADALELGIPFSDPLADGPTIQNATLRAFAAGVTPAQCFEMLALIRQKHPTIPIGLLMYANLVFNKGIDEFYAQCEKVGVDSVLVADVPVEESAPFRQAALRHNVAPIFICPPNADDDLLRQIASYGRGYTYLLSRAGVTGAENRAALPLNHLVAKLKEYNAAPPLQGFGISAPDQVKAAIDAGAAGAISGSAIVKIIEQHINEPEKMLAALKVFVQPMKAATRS

For the compound `CCc1cc2ccccc2[nH]1` [2-ethylindole], in series [1] (setting [3]), the activity at 20 µg/mL worked out at 93%, the activity at 50 µg/mL stood at 73% and the activity at 200 µg/mL was 68%. In addition, in series [1] (setting [4]), the activity at 20 µg/mL came out at 71%, the activity at 50 µg/mL stood at 54% and the activity at 200 µg/mL is 48%. Further, the “level at which the impurity inhibits tryptophan synthase” value in series [1] is recorded as “about 20 ppm”.

Take `Cc1c[nH]c2ccccc12` [3-methylindole]: the figures for the activity at 200 µg/mL in series [1] (setting [3]) and in series [1] (setting [4]) were 94% and 89%, respectively. Also, the activity at 500 µg/mL amounted to 94% in series [1] (setting [3]) and 84% in series [1] (setting [4]). Also, the “level at which the impurity inhibits tryptophan synthase” value in series [1] is given as “about 200 ppm”.

As for `Nc1ccccc1` [Aniline], the activity at 200 µg/mL is 98% in series [1] (setting [3]) and 101% in series [1] (setting [4]). The activity at 1000 µg/mL in series [1] (setting [3]) was 100%; in series [1] (setting [4]), 82%.

Turning to `CCNc1ccccc1` [N-ethylaniline], in series [1] (setting [3]), the activity at 200 µg/mL stood at 104% and the activity at 1000 µg/mL was found to be 100%. Further, in series [1] (setting [4]), the activity at 200 µg/mL is 97% and the activity at 1000 µg/mL was 89%.

Regarding `c1ccc2[nH]ccc2c1` [indole], the solubility in water in series [2] was 3000 to 4000 µg/mL.

As for `CCc1ccccc1N` [o-ethylaniline], in series [1] (setting [3]), the activity at 200 µg/mL turned out to be 90% and the activity at 1000 µg/mL came out at 71%. Besides, in series [1] (setting [4]), the activity at 200 µg/mL worked out at 77% and the activity at 1000 µg/mL was found to be 50%. For the same compound, the “level at which the impurity inhibits tryptophan synthase” value in series [1] is given as “about 200 ppm”.

As for `Cc1ccccc1N` [o-toluidine], in series [1] (setting [3]), the activity at 200 µg/mL is 97% and the activity at 1000 µg/mL was 88%. Moreover, in series [1] (setting [4]), the activity at 200 µg/mL was 106% and the activity at 1000 µg/mL is 80%.
